Experimental data published in patent US10633419B2, “Immunomodulators” (BRISTOL-MYERS SQUIBB COMPANY, priority 2014, dated 2020).
Positions of bridges follow the written chain, without caps; N, C: chain ends. Non-standard residues stand in square brackets, D forms with d. Residues, ends and D or L forms follow the SMILES beside them. *: point of attachment. X4 = O=C(O)CCCCCCCCCCCCCCCCC(=O)N[C@@H](CC(=O)NCCCOCCOCCOCCCN*)C(=O)O; Trp(1-CH2COOH) = N[C@@H](Cc1cn(CC(=O)O)c2ccccc12)C(=O)O; d(cisHyp) = O=C(O)[C@H]1C[C@@H](O)CN1; PEG6 = NCCOCCOCCOCCOCCOCCOCCC(=O)O; Hyp = O=C(O)[C@@H]1C[C@@H](O)CN1; NHhexadecyl = CCCCCCCCCCCCCCCCN*; NMeNle = CCCC[C@H](NC)C(=O)O; NMeA = CN[C@@H](C)C(=O)O; Pra = C#CC[C@H](N)C(=O)O; Aun = NCCCCCCCCCCC(=O)O; Dab = NCC[C@H](N)C(=O)O; Dap = NC[C@H](N)C(=O)O

Molecular target: T1, PD-L1 (Homo sapiens, UniProt Q9NZQ7)
T1 construct: hPDL1(19-239)-TVMV-His; made in house; host or cells: HEK293T
T1 sequence (Q9NZQ7 with tags, fused parts or gaps): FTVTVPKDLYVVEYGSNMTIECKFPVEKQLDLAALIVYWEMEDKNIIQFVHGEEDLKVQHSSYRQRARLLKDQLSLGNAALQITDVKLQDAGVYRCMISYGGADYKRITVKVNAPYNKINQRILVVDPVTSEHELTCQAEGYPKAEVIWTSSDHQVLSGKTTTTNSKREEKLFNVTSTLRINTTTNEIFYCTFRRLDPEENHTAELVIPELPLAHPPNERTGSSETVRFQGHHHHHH
Assay: PD-1/PD-L1 Homogenous Time-Resolved Fluorescence (HTRF) binding assay (PD-1-Ig/PD-L1-His)
Conditions: inhibition of PD-1-Ig binding to PD-L1-TVMV-His; value given as range class; read-out: HTRF IC50
Method in brief: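 Inhibitors pre-incubated 15 min with PD-L1-His (10 nM final), then PD-1-Ig (20 nM final) added for 15 min in dPBS/0.1% BSA/0.05% Tween-20. Eu-cryptate anti-Ig (1 nM) and APC anti-His (20 nM) added, 30 min equilibration, 665/620 nm HTRF ratio read.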

Row | Compound | IC50 [nM]
1 | CCCCCCCCCCCCCCCCNC(=O)CNC(=O)CNC(=O)[C@@H]1CSCC(=O)N[C@@H](Cc2ccc(O)cc2)C(=O)N(C)[C@@H](C)C(=O)N[C@@H](CC(N)=O)C(=O)N2CCC[C@H]2C(=O)N[C@@H](CCC(=O)O)C(=O)N[C@@H](CC(C)C)C(=O)N2C[C@H](O)C[C@H]2C(=O)N[C@@H](Cc2c[nH]c3ccccc23)C(=O)N[C@@H](CO)C(=O)N[C@@H](Cc2c[nH]c3ccccc23)C(=O)N(C)[C@@H](CCCC)C(=O)N(C)[C@@H](CCCC)C(=O)N[C@@H](CCCNC(=N)N)C(=O)N1 [Example 11109] ({CH2CO}-Y[NMeA]NPEL[Hyp]WSW[NMeNle][NMeNle]RCGG-NHhexadecyl; thioether N-14) | 100 to 1600
2 | CCCC[C@H]1C(=O)N(C)[C@@H](CCCC)C(=O)N[C@@H](CC(C)C)C(=O)N[C@H](C(=O)NCC(=O)NCC(=O)NCC(=O)NCCCCCCCCCCC(=O)O)CSCC(=O)N[C@@H](Cc2ccc(O)cc2)C(=O)N(C)[C@@H](C)C(=O)N[C@@H](CC(=O)O)C(=O)N2CCC[C@H]2C(=O)N[C@@H](CN)C(=O)N[C@@H](CCC(=O)O)C(=O)N2C[C@H](O)C[C@H]2C(=O)N[C@@H](Cc2c[nH]c3ccccc23)C(=O)N[C@@H](CCN)C(=O)N[C@@H](Cc2cn(CC(=O)O)c3ccccc23)C(=O)N1C [Example 11097] ({CH2CO}-Y[NMeA]DP[Dap]E[Hyp]W[Dab][Trp(1-CH2COOH)][NMeNle][NMeNle]LCGGG[Aun]-OH; thioether N-14) | 10 to 99
3 | CCCC[C@H]1C(=O)N(C)[C@@H](CCCC)C(=O)N[C@@H](CC(C)C)C(=O)N[C@H](C(=O)NCC(=O)N[C@@H](CCC(=O)O)C(=O)NCCCOCCOCCOCCCNC(=O)C[C@H](NC(=O)CCCCCCCCCCCCCCCCC(=O)O)C(=O)O)CSCC(=O)N[C@@H](Cc2ccc(O)cc2)C(=O)N(C)[C@@H](C)C(=O)N[C@@H](CC(N)=O)C(=O)N2CCC[C@H]2C(=O)N[C@@H](CN)C(=O)N[C@@H](CC(C)C)C(=O)N2C[C@H](O)C[C@@H]2C(=O)N[C@@H](Cc2c[nH]c3ccccc23)C(=O)N[C@@H](CCN)C(=O)N[C@@H](Cc2cn(CC(=O)O)c3ccccc23)C(=O)N1C [Example 11257] ({CH2CO}-Y[NMeA]NP[Dap]L[d(cisHyp)]W[Dab][Trp(1-CH2COOH)][NMeNle][NMeNle]LCGE-X4; thioether N-14) | 0.3 to 9.9
4 | CCCC[C@H]1C(=O)N(C)[C@@H](CCCC)C(=O)N[C@@H](CC(C)C)C(=O)N[C@H](C(=O)NCCOCCOCCOCCOCCOCCOCCC(=O)O)CSCC(=O)N[C@@H](Cc2ccc(O)cc2)C(=O)N(C)[C@@H](C)C(=O)N[C@@H](CC(N)=O)C(=O)N2CCC[C@H]2C(=O)N[C@@H](CO)C(=O)N[C@@H](CCC(N)=O)C(=O)N2C[C@H](O)C[C@@H]2C(=O)N[C@@H](Cc2c[nH]c3ccccc23)C(=O)N[C@@H](CO)C(=O)N[C@@H](Cc2cn(CC(=O)O)c3ccccc23)C(=O)N1C [Example 11045] ({CH2CO}-Y[NMeA]NPSQ[d(cisHyp)]WS[Trp(1-CH2COOH)][NMeNle][NMeNle]LC[PEG6]-OH; thioether N-14) | 10 to 99
5 | C#CC[C@H](NC(=O)CNC(=O)CNC(=O)CNC(=O)[C@@H]1CSCC(=O)N[C@@H](Cc2ccc(O)cc2)C(=O)N(C)[C@@H](C)C(=O)N[C@@H](CC(N)=O)C(=O)N2CCC[C@H]2C(=O)N[C@@H](CN)C(=O)N[C@@H](CC(C)C)C(=O)N2C[C@H](O)C[C@H]2C(=O)N[C@@H](Cc2c[nH]c3ccccc23)C(=O)N[C@@H](CCN)C(=O)N[C@@H](Cc2cn(CC(=O)O)c3ccccc23)C(=O)N(C)[C@@H](CCCC)C(=O)N(C)[C@@H](CCCC)C(=O)N[C@@H](CC(C)C)C(=O)N1)C(=O)O [INT130AB] ({CH2CO}-Y[NMeA]NP[Dap]L[Hyp]W[Dab][Trp(1-CH2COOH)][NMeNle][NMeNle]LCGGG[Pra]-OH; thioether N-14) | 10 to 99
